Reference: US12279617B2, “Agricultural and horticultural chemical agent containing new imidazopyridine-2-carboxamide derivative as active ingredient” (AGRO-KANESHO CO., LTD., priority 2019, dated 2025)

Experiments:
Type in all cases: in vivo
Plutella xylostella = test: Insecticidal effect test for Plutella xylostella of Chinese cabbage; conditions: 500 ppm emulsion agent sprayed on Chinese cabbage seedlings; 3rd instar larvae; 5 days after insect release; 25° C.; agony insects counted as dead
Experimental: A sufficient amount of a water diluted solution of an emulsion agent (500 ppm) prepared as in Formulation Example 1 was sprayed with an air brush to the leaves of Chinese cabbage seedlings planted in pots raised for 2 weeks after sowing. The liquid agent was air dried, and five 3rd instar larvae of Plutella xylostella were then inoculated per pot and were kept in a thermostat chamber of 25° C. Five days after the insect release, the life-and-death and the agony of the larvae were investigated, and the insecticidal rate (%) when agony insects were included in dead insects was determined. Incidentally, the test was carried out by using one seedling in each ward. Insecticidal rate (%)=[number of dead larvae)/(number of test larvae)]×100

[1] = tested on: Spodoptera litura (Fabricius); test: Larvicide test for Spodoptera litura (Fabricius); conditions: 500 ppm emulsion agent; artificial feed immersed about 60 seconds; 7 days after insect release; 25° C.; agony insects counted as dead
Source text: A water diluted solution of an emulsion agent (500 ppm) prepared as in Formulation Example 1 was put in a 120-mL polyethylene cup, and artificial feed Insecta LF (Nosan Corporation, diameter: 5 cm) sliced into 5 mm thickness and cut into ¼ was immersed in the polyethylene cup for about 60 seconds. After the immersion treatment, the resultant artificial feed piece was put in another 120-mL polyethylene cup (diameter: 8 cm, height: 4 cm) with filter paper (diameter: 55 mm) on the bottom together with test insects, and the cup was covered with a lid and was then kept in a thermostat chamber of 25° C. Seven days after the insect release, the life-and-death and the agony of the larvae were investigated, and the insecticidal rate (%) when agony insects were included in dead insects was determined. Incidentally, the test was carried out by using one cup in each ward. Insecticidal rate (%)=[number of dead larvae)/(number of test larvae)]×100

[2] = tested on: Aculops lycopersici Massee; test: Adult-killing test for Aculops lycopersici Massee (tomato rust mites); conditions: 500 ppm emulsion agent sprayed 2.0 mL per cup on tomato leaf disks; 3 days after treatment; 25° C.; scored on four scales (100, 80, 50, 0)
Source text: A lid provided with a hole (diameter: about 5 mm) at the center was put on a 430-mL polyethylene cup containing water. Circular filter paper with a diameter of 6.5 cm which was cut such that a strip-shaped filter paper piece having a width of about 5 mm was formed was put on the lid, and the filter paper piece was inserted into the hole of the lid so that the tip of the piece extends downward from the hole and immersed in the water in the cup. Furthermore, absorbent cotton was put on the filter paper such that the water in the cup was always supplied to the absorbent cotton. Three leaf disks (1 cm×1 cm) of leaflets of tomato in the early stage of true leaf development were put on the absorbent cotton such that the back of the leaves in the disk form was on top, and small pieces of a leaf parasitized by tomato rust mites were inoculated on the leaves in the disk form. After 24 hours from the inoculation, the small pieces were removed, and the cup was placed in an acrylic cylinder having a height of 50 cm and a diameter of 10 cm. A water diluted solution of an emulsion agent (500 ppm) prepared as in Formulation Example 1 was sprayed in an amount of 2.0 mL per cup using an air brush. After the spraying, the cup was kept in a thermostat chamber of 25° C. Three days after the treatment, the control rate was evaluated on four scales: 100 (control rate: 100%), 80 (control rate: 99% to 80%), 50 (control rate: 79% to 50%), and 0 (control rate: less than 50%), and the next-generation density suppression rate was calculated based on the results by the following equation. Incidentally, the test was carried out by using one cup in each ward. Control rate=(A×100+B×80+C×50)/(A+B+C+D) A: the number of disks for 100, B: the number for disks of 80, C: the number for disks of 50, D: the number of disks for 0.

Structure (SMILES)	insecticidal rate (Plutella xylostella) [%]	insecticidal rate [1] [%]	control rate [2] [%]
CCS(=O)(=O)c1c(C(=O)N(CS(C)(=O)=O)c2ccc(C(F)(F)F)cc2)nc2ccc(C(F)(F)F)cn12 [A-102]	100	100	100
CCOCN(C(=O)c1nc2cccc(C(F)(F)F)n2c1S(=O)(=O)CC)c1ccc(C(F)(F)F)cc1 [A-18]	100	100	–
CCOCN(C(=O)c1nc2ccc(Cl)cn2c1SCC)c1ccc(C(F)(F)F)cc1 [A-25]	100	100	100
CCS(=O)(=O)c1c(C(=O)N(COC)c2ccc(C(F)(F)F)cc2)nc2ccc(C(F)(F)F)cn12 [A-15, N-(methoxymethyl)-N-{4-(trifluoromethyl)phenyl}-3-(ethylsulfonyl)-6-(trifluoromethyl)imidazo[1,2-a]pyridine-2-carboxamide]	100	100	100
CC[S+]([O-])c1c(C(=O)N(COC)c2ccc(C(F)(F)F)cc2)nc2ccc(C(F)(F)F)cn12 (stereo not drawn) [A-14, N-(methoxymethyl)-N-{4-(trifluoromethyl)phenyl}-3-(ethylsulfinyl)-6-(trifluoromethyl)imidazo[1,2-a]pyridine-2-carboxamide]	100	100	100
CCOCN(C(=O)c1nc2cc(C(F)(F)F)ccn2c1[S+]([O-])CC)c1ccc(C(F)(F)F)cc1 (stereo not drawn) [A-20]	100	100	–
CCOCN(C(=O)Cc1ccncc1S(=O)(=O)CC)c1ccc(C(F)(F)F)cc1 [Compound B, reference compound]	50	0	100
CCS(=O)(=O)c1c(C(=O)N(C)c2ccc(C(F)(F)F)cc2)nc2ccc(C(F)(F)F)cn12 [Compound A, reference compound]	90	90	100
CCSc1c(C(=O)N(COC)c2ccc(C(F)(F)F)cc2)nc2ccc(C(F)(F)F)cn12 [A-13, N-(methoxymethyl)-N-{4-(trifluoromethyl)phenyl}-3-(ethylthio)-6-(trifluoromethyl)imidazo[1,2-a]pyridine-2-carboxamide]	100	100	–
CCOCN(C(=O)c1nc2cc(C(F)(F)F)ccn2c1S(=O)(=O)CC)c1ccc(C(F)(F)F)cc1 [A-21]	100	100	–
CCOCN(C(=O)c1nc2ccc(C(F)(F)F)cn2c1S(=O)(=O)CC)c1ccc(SC(F)(F)F)cc1 [A-72]	100	100	100
CCOCN(C(=O)c1nc2ccc(C(F)(F)F)cn2c1SCC)c1ccc(SC(F)(F)F)cc1 [A-70]	100	100	100
CCOCN(C(=O)c1nc2ccc(C(F)(F)F)cn2c1SCC)c1ccc(C(F)(F)F)nc1 [A-91]	100	100	–
CCOCN(C(=O)c1nc2ccc(C(F)(F)F)cn2c1S(=O)(=O)CC)c1ccc(C(F)(F)F)cn1 [A-96]	100	100	100
CCOCN(C(=O)c1nc2c(C(F)(F)F)cccn2c1SCC)c1ccc(C(F)(F)F)cc1 [A-22]	100	100	–
CCOCN(C(=O)c1nc2ccc(C(F)(F)F)cn2c1S(=O)(=O)CC)c1ccc([S+]([O-])C(F)(F)F)cc1 (stereo not drawn) [A-75]	100	100	100
CCOCN(C(=O)c1nc2ccc(Cl)cn2c1S(=O)(=O)CC)c1ccc(C(F)(F)F)cc1 [A-27]	100	100	100
CCS(=O)(=O)c1c(C(=O)N(CSC)c2ccc(C(F)(F)F)cc2)nc2ccc(C(F)(F)F)cn12 [A-99]	100	100	–
CCOCN(C(=O)c1nc2ccc(C(F)(F)F)cn2c1SCC)c1ccccc1C(F)(F)F [A-31]	100	–	–
CCOCN(C(=O)c1nc2ccc(C(F)(F)F)cn2c1S(=O)(=O)CC)c1ccccc1C(F)(F)F [A-33]	100	100	100
